In patent US10336707B2, “Heterocyclic derivatives modulating activity of certain protein kinases” (EUDENDRON S.R.L., priority 2014, dated 2019):
pIC50: −log10 of the molar value.

Columns and labels:
NPM/ALK positive SUPM2 = test: Tritiated thymidine uptake cell proliferation assay, SUPM2; format: cell-based; conditions: SUP-M2; cell line SUPM2; read-out: IC50 of cellular proliferation, SUPM2
Procedure: (§1) Method: Tritiated Thymidine Uptake Cell Proliferation Assay
(§2) The following procedure was used with parent untransformed BaF3 cells, BaF3 cells transformed with the oncogenic fusion protein NPM/ALK, NPM/ALK positive SUDHL-1 cells, NPM/ALK positive SUPM2, ALK-negative HL60 cells, NPM/ALK positive KARPAS-299 cells. The parent untransformed BaF3 cells or Alk-negative HL60 cells are used as controls. Cells were seeded in U-bottomed 96-well plates at 10000 cells/well in a volume of 100 μl in supplemented medium. In the case of the parent untransformed BaF3 cells, the medium was supplemented with IL-3. Serial dilutions of inhibitors were added to the appropriate wells and volumes adjusted to 200 μl. Controls were treated with the equivalent volume of vehicle, DMSO, alone. Plates were incubated at 37° C. for 72 h. 3[H]-thymidine (1 μCi/well) was added for the last 16 h of incubation. Cells were harvested on to paper filters and 3[H]-thymidine incorporation was measured using a scintillation counter (1430 MicroBeta, Wallac, Turku, Finland). The 50% inhibitory concentration (IC50) was defined as the concentration of inhibitor, expressed in nanomolar units, that gave a 50% decrease in 3[H]-thymidine uptake compared with controls.
In Table 4 are reported the IC50 of cellular proliferation assays of example 3 versus ALK positive, mutated and negative cell lines.

RET wild-type = target: T1, RET wild-type (Homo sapiens, UniProt P07949); test: Radiometric protein kinase assay (33PanQuinase Activity Assay), RET wild-type; format: biochemical; conditions: ATP 1.0 μM
T1 construct: either as full-length or enzymatically active fragments; purchased ProQinase GmbH (Freiburg, Germany)
T1 sequence (P07949 29-1114): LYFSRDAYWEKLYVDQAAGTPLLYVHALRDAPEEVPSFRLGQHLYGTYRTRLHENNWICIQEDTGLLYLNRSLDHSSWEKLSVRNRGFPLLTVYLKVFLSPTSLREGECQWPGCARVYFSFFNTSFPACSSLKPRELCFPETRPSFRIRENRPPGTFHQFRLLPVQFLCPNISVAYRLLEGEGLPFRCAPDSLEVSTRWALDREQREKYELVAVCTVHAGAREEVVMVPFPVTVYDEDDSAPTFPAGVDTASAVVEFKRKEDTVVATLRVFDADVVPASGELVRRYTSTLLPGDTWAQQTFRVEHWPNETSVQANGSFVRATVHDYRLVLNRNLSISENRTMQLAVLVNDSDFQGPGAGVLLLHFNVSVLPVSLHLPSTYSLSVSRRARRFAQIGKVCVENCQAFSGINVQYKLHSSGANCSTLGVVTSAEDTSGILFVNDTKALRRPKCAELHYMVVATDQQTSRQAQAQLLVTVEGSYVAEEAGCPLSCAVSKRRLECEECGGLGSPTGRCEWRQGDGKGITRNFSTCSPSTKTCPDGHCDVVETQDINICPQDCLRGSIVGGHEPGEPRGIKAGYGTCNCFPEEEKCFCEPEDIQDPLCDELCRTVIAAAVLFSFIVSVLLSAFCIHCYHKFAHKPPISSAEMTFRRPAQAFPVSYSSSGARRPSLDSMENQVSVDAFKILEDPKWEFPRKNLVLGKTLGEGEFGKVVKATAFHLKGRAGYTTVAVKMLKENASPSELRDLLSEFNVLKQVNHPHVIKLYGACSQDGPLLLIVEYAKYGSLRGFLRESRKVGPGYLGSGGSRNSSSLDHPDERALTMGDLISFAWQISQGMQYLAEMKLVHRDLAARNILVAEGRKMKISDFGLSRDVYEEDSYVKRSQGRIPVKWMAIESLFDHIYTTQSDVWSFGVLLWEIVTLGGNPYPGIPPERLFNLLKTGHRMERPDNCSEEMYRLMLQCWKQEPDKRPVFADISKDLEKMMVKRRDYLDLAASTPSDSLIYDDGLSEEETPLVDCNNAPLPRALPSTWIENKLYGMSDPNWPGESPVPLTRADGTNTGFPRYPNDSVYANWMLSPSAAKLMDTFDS
Procedure: A proprietary radiometric protein kinase assay (33PanQuinase® Activity Assay) developed by ProQuinase GmbH (Freiburg, Germany) was used for measuring the kinase activity of selected protein kinases. All assays were performed in FlashPlates™ wells 96 Perkin Elmer (Boston, Mass., USA) in a reaction volume of 50 μl. The reaction mixture was obtained in 4 steps in the following order: • 1. 10 μl of a solution of non-radioactive ATP in water; • 2. 25 μl of assay buffer/[γ-^33P]-ATP mixture • 3. 5 μl of test sample in 10% DMSO • 4. 10 μl of enzyme/substrate mixture
All protein kinases provided by ProQinase were expressed in Sf9 insect cells or in E. coli as recombinant GST-fusion proteins or His-tagged proteins, either as full-length or enzymatically active fragments. […] Kinases from external vendors (CAR=Carna Biosciences Inc.; INV=Life Technologies (Invitrogen Corporation); MIL=Merck-Millipore (Millipore Corporation), were expressed, purified and quality-controlled by virtue of the vendors readings.
A stock solution of compound of formula (I) was diluted to 5×10-04M/100% DMSO. […] Incorporation of 33Pi (counting of “cpm”) was determined with a microplate scintillation counter (Microbeta, Wallac). […]
Based on each 10 corresponding residual activities, IC50 values were calculated using Prism 5.04 for Windows (Graphpad, San Diego, Calif.). […]

ALK-negative HL60 cells = test: Tritiated thymidine uptake cell proliferation assay, HL60 (ALK-negative control); format: cell-based; conditions: Homo sapiens, HL-60; cell line HL60, ALK negative control; read-out: IC50 of cellular proliferation, HL60
Procedure: as §1, §2
Potentially toxic effects were assessed using parent untransformed BaF3 cells or ALK negative HL60 cells. […]

SMILES: CN1CCN(c2ccc(C(=O)Nc3n[nH]c4cc(-c5ccc(O)cc5)c(Cc5cc(F)cc(F)c5)cc34)c(NC3CCOCC3)c2)CC1 [Example 3, N-[5-[(3,5-difluorophenyl)methyl]-6-(4-hydroxyphenyl)-1H-indazol-3-yl]-4-(4-methylpiperazin-1-yl)-2-(tetrahydropyran-4-ylamino)benzamide]
- pIC50 (NPM/ALK positive SUPM2): 7.28
- pIC50 (RET wild-type): 6.92
- pIC50 (ALK-negative HL60 cells): 4.77
